Patent US8569344B2, “N-piperidinyl acetamide derivatives as calcium channel blockers” (Zalicus Pharmaceuticals Ltd., priority 2008, dated 2013)

Tests used:
[1] = target: T1, human α1H T-type channels (Homo sapiens, UniProt O95180); assay: T-type calcium channel block, whole cell patch clamp in HEK cells (α1H); format: cell-based; conditions: HEK cells, patch clamp, mainly non-inactivated protocol; values above 10 μM shown as 10 μM; read-out: T-type Calcium Channel Block α1H IC50
T1 construct: expressed in transfected cells; host or cells: HEK 293
Procedure: (§1) T-type calcium channel blocking activity was assayed in human embryonic kidney cells, HEK 293, stably transfected with the T-type calcium channel subunits. Briefly, cells were cultured in Dulbecco's modified eagle medium (DMEM) supplemented with 10% fetal bovine serum, 200 U/ml penicillin and 0.2 mg/ml streptomycin at 37° C. with 5% CO2. At 85% confluency cells were split with 0.25% trypsin/1 mM EDTA and plated at 10% confluency on glass coverslips. […] Fresh DMEM was supplied and the cells transferred to 28° C./5% CO2. Cells were incubated for 1 to 2 days prior to whole cell recording.
(§2) Standard patch-clamp techniques were employed to identify blockers of T-type currents. Briefly, previously described HEK cell lines stably expressing human α1G, α1H and α1I T-type channels were used for all the recordings (passage #: 4-20, 37° C., 5% CO2). Whole cell patch clamp experiments were performed using an Axopatch 200B amplifier (Axon Instruments, Burlingame, Calif.) linked to a personal computer equipped with pCLAMP software. Data were analyzed using Clampfit (Axon Instruments) and SigmaPlot 4.0 (Jandel Scientific). To obtain T-type currents, plastic dishes containing semi-confluent cells were positioned on the stage of a ZEISS AXIOVERT S100 microscope after replacing the culture medium with external solution (see below). Whole-cell patches were obtained using pipettes (borosilicate glass with filament, O.D.: 1.5 mm, I.D.: 0.86 mm, 10 cm length), fabricated on a SUTTER P-97 puller with resistance values of ˜5 MΩ (see below for internal solution).
(§3) In the non-inactivating protocol, the holding potential is set at −110 mV and with a pre-pulse at −100 mV for 1 second prior to the test pulse at −40 mV for 50 ms.
(§4) Test compounds were dissolved in external solution, 0.1-0.01% DMSO. After ˜10 min rest, they were applied by gravity close to the cell using a WPI microfil tubing. The “non-inactivated” pre-pulse was used to examine the resting block of a compound. The “inactivated” protocol was employed to study voltage-dependent block. […] Values are shown in μM and values above 10 μM are simply represented as 10 μM.

[2] = target: T2, human α1G T-type channels (Homo sapiens, UniProt O43497); assay: T-type calcium channel block, whole cell patch clamp in HEK cells (α1G); format: cell-based; conditions: HEK cells, patch clamp, mainly non-inactivated protocol; values above 10 μM shown as 10 μM, below 0.30 μM shown as 0.30 μM; read-out: T-type Calcium Channel Block α1G IC50
T2 construct: expressed in transfected cells; host or cells: HEK 293
Procedure: as §1, §2, §3, §4

T2 sequence (O43497 whole entry): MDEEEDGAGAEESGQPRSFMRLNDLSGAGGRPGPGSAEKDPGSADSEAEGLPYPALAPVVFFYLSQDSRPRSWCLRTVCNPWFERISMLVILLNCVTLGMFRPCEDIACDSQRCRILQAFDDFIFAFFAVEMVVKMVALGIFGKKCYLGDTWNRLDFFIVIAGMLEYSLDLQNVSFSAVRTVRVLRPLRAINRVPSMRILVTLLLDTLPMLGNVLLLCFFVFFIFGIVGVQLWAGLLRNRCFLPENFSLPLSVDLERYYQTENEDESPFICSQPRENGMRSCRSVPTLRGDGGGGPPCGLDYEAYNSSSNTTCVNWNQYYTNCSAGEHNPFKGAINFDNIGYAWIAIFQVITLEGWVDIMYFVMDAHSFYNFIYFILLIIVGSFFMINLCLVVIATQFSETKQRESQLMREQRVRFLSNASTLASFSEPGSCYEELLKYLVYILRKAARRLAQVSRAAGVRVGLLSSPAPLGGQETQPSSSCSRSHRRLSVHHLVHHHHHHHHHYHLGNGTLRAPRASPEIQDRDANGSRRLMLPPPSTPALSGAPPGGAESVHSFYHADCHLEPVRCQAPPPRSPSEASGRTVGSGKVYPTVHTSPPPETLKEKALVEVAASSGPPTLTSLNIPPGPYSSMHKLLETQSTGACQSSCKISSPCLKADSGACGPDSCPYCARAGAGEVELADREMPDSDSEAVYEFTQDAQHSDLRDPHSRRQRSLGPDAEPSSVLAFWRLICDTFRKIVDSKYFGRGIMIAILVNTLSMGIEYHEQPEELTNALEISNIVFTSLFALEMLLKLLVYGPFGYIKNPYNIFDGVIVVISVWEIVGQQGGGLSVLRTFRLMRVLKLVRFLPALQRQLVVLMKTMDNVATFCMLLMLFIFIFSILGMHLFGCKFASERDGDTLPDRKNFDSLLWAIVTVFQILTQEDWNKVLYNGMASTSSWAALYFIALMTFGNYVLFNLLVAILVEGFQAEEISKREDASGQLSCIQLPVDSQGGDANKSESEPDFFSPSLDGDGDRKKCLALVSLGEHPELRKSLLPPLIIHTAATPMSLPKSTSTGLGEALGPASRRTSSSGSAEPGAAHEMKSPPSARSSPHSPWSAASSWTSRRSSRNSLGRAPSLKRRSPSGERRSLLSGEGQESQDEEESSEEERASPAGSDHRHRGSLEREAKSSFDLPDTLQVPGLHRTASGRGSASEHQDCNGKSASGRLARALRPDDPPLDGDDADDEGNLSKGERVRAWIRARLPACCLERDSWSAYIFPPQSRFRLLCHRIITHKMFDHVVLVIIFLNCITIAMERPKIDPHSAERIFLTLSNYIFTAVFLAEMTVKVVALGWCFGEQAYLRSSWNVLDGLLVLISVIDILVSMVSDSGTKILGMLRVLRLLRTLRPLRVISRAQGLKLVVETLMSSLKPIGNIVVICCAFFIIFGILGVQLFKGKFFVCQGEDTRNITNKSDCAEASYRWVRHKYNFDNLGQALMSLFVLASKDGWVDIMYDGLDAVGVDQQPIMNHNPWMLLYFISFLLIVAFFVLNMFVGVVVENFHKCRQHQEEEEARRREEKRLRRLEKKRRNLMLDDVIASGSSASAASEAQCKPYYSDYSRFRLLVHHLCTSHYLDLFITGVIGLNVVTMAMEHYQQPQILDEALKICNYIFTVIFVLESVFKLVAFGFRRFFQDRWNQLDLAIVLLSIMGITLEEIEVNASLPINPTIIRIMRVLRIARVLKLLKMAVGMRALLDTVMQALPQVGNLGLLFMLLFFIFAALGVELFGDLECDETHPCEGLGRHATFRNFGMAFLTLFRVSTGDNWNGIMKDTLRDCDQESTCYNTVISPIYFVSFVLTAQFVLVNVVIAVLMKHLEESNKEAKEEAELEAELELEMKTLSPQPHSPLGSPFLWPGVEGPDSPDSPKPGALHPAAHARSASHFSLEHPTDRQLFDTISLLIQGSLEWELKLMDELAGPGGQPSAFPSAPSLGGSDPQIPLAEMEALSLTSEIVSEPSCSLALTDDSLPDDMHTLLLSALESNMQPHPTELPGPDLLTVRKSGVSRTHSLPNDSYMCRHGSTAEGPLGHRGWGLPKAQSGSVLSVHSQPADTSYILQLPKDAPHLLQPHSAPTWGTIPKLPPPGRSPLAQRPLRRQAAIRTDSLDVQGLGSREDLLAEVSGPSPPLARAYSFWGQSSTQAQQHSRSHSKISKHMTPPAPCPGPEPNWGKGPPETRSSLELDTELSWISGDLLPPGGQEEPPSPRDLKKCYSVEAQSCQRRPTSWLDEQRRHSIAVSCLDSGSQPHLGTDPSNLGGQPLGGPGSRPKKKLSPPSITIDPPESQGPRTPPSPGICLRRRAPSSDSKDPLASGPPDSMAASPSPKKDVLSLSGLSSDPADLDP
T1 sequence (O95180 whole entry): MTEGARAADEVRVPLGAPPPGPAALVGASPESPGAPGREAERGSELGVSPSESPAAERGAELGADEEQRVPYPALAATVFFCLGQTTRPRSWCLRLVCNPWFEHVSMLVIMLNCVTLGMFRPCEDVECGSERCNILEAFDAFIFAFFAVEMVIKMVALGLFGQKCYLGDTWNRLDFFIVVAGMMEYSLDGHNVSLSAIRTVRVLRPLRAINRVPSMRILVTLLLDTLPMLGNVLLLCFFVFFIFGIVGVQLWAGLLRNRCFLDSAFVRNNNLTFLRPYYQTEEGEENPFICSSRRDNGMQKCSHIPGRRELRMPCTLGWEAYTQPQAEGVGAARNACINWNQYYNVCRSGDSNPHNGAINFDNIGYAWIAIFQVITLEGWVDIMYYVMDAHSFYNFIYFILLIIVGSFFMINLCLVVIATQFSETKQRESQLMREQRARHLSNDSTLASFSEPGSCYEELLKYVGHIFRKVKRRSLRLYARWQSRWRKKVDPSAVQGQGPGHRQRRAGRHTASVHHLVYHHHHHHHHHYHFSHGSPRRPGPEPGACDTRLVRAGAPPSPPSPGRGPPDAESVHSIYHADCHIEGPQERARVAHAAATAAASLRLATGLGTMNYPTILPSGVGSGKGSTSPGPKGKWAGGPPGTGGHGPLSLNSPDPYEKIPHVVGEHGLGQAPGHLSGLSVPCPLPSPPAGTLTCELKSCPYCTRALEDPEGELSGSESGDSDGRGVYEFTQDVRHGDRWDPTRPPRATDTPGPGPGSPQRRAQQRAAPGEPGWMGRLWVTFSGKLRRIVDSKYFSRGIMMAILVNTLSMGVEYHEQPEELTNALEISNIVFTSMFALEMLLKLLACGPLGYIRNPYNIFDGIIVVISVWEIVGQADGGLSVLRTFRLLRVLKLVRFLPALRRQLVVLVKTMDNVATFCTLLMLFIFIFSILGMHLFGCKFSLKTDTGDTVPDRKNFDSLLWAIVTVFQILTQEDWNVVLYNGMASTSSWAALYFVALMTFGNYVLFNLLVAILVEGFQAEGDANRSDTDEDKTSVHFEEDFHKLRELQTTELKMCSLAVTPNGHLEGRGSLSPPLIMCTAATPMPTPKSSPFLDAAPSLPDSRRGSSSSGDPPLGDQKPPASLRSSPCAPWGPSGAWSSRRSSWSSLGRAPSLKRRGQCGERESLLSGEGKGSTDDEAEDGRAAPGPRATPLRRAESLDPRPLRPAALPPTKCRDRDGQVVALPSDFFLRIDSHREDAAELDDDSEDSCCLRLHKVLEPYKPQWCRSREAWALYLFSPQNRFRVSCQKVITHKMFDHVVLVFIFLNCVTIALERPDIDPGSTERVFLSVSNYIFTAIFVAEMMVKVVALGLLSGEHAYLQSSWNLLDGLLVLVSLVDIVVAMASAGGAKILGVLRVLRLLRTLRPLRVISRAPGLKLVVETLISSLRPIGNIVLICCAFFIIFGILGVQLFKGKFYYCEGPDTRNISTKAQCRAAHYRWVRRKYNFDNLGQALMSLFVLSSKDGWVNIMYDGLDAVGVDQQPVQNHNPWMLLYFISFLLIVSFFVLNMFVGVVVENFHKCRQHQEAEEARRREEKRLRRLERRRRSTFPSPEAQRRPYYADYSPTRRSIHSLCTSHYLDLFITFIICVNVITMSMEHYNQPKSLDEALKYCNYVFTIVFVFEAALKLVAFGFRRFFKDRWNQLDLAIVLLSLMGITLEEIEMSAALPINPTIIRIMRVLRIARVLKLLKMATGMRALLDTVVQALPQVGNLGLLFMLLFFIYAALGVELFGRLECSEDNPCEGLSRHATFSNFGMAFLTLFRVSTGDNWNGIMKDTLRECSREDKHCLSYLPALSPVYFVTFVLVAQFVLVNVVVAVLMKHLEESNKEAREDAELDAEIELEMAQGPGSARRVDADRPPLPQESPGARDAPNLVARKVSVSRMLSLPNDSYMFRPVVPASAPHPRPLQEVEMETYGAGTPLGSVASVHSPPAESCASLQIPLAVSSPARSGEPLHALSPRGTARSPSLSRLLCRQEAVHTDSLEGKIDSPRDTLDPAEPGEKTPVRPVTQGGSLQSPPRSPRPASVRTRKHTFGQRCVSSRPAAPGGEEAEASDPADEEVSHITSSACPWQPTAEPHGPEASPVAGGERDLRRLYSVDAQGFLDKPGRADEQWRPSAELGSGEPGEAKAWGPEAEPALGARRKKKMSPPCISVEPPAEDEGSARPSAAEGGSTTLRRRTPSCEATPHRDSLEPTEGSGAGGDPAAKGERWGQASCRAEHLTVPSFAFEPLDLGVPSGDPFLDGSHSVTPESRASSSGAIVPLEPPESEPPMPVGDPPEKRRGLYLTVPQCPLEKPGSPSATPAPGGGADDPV

CC(C)(C)OC(=O)N1CCC(O)(CN2CCC(CNC(=O)c3cc(F)cc(C(F)(F)F)c3)CC2)CC1 [Compound 599, tert-butyl 4-((4-((3-fluoro-5-(trifluoromethyl)benzamido)methyl)piperidin-1-yl)methyl)-4-hydroxy-piperidine-1-carboxylate]
IC50 [1]: 1470 nM

O=C(NCC1CCN(C(=O)CN2CC[C@@H](O)C2)CC1)c1cc(C(F)(F)F)cc(C(F)(F)F)c1 [Compound 263, (R)-N-((1-(2-(3-hydroxypyrrolidin-1-yl)acetyl)piperidin-4-yl)methyl)-3,5-bis(trifluoromethyl)benzamide]
IC50 [1]: > 10000 nM

CC(C)(C)C(=O)N1CC(N2CCC(CNC(=O)c3cc(F)cc(Cl)c3)CC2)C1 [Compound 607, 3-chloro-5-fluoro-N-((1-(1-pivaloyl-azetidin-3-yl)piperidin-4-yl)methyl) benzamide]
IC50 [1]: 3170 nM

COc1cc(Cl)cc(C(=O)NCC2CCN(CC(=O)N(C)C3(C)CCC3)CC2)c1 [Compound 591, 3-chloro-5-methoxy-N-((1-(2-(methyl(1-methylcyclobutyl)amino)-2-oxoethyl)piperidin-4-yl)methyl)benzamide]
IC50 [1]: 170 nM

CC1CCCCC1NC(=O)CN1CCC(CNC(=O)c2cc(C(F)(F)F)cc(C(F)(F)F)c2)CC1 (stereo not drawn) [Compound 93]
IC50 [1]: 90 nM

O=C(CC1CCN(C(=O)C2(O)CCNCC2)CC1)Nc1cc(C(F)(F)F)cc(C(F)(F)F)c1 [Compound 157, N-(3,5-bis(trifluoromethyl)phenyl)-2-(1-(4-hydroxypiperidine-4-carbonyl)piperidin-4-yl)acetamide]
IC50 [1]: > 10000 nM

O=C(NCC1CCN(C(=O)CNC2CC2)CC1)c1cc(F)cc(C(F)(F)F)c1 [Compound 284, N-((1-(2-(cyclopropylamino)acetyl)piperidin-4-yl)methyl)-3-fluoro-5-(trifluoromethyl)benzamide]
IC50 [1]: > 10000 nM

O=C(NCC1CCN(CCNC(=O)C2CCCC2)CC1)c1cc(C(F)(F)F)cc(C(F)(F)F)c1 [Compound 62, N-((1-(2-(cyclopentanecarboxamido)ethyl)piperidin-4-yl)methyl)-3,5-bis(trifluoromethyl)benzamide]
IC50 [1]: 230 nM

CN1CCC(C(=O)NCCN2CCC(CNC(=O)c3cc(C(F)(F)F)cc(C(F)(F)F)c3)CC2)CC1 [Compound 61, N-(2-(4-((3,5-bis(trifluoromethyl)benzamido)methyl)piperidin-1-yl)ethyl)-1-methylpiperidin-4-carboxamide]
IC50 [1]: > 10000 nM

CC(C)(CN1CCC(CNC(=O)c2cc(F)cc(C(F)(F)F)c2)CC1)NS(=O)(=O)C(F)(F)F [Compound 6, 3-fluoro-N-((1-(2-methyl-2-(trifluoromethylsulfonamido)propyl)piperidin-4-yl)methyl)-5-(trifluoromethyl)benzamide]
IC50 [1]: 1320 nM

CN(C(=O)CN1CCC(CNC(=O)c2cccc(Br)c2)CC1)C1(C)CCC1 [Compound 593, 3-bromo-N-((1-(2-(methyl(1-methylcyclobutyl)amino)-2-oxoethyl)piperidin-4-yl)methyl) benzamide]
IC50 [1]: 260 nM

CS(=O)(=O)c1cc(C(=O)NCC2CCN(CC(=O)N3CCC[C@@H]3C(F)(F)F)CC2)cc(C(F)(F)F)c1 [Compound 589, (R)-3-(methylsulfonyl)-N-((1-(2-oxo-2-(2-(trifluoromethyl)pyrrolidin-1-yl)ethyl)piperidin-4-yl)methyl)-5-(trifluoromethyl) benzamide]
IC50 [1]: > 10000 nM

O=C(NCC1CCN(C2CN(C(=O)c3cccc(Cl)c3)C2)CC1)c1cc(F)cc(Cl)c1 [Compound 606, 3-chloro-N-((1-(1-(3-chlorobenzoyl)azetidin-3-yl)piperidin-4-yl)methyl)-5-fluorobenzamide]
IC50 [1]: 3300 nM

CCC1CCCN1C(=O)CN1CCC(CNC(=O)c2cc(C(F)(F)F)cc(C(F)(F)F)c2)CC1 (stereo not drawn) [Compound 105, N-((1-(2-(2-ethylpyrrolidin-1-yl)-2-oxoethyl)piperidin-4-yl)methyl)-3,5-bis(trifluoromethyl)benzamide]
IC50 [1]: 280 nM

C[C@@H]1CCCCN1C(=O)CN1CCC(CNC(=O)c2cc(C(F)(F)F)cc(C(F)(F)F)c2)CC1 [Compound 104, (R)-N-((1-(2-(2-methylpiperidin-1-yl)-2-oxoethyl)piperidin-4-yl)methyl)-3,5-bis(trifluoromethyl)benzamide]
IC50 [1]: 140 nM

O=C(CN1CCC(CNC(=O)c2cc(C(F)(F)F)cc(C(F)(F)F)c2)CC1)N[C@H]1CC[C@H](O)CC1 [Compound 96, N-((1-(2-((1r,4r)-4-hydroxycyclo-hexylamino)-2-oxoethyl)piperidin-4-yl)methyl)-3,5-bis(trifluoromethyl) benzamide]
IC50 [1]: > 10000 nM

CCS(=O)(=O)NC(C)(C)CN1CCC(CNC(=O)c2cc(F)cc(C(F)(F)F)c2)CC1 [Compound 7, N-((1-(2-(ethylsulfonamido)-2-methylpropyl)piperidin-4-yl)methyl)-3-fluoro-5-(trifluoromethyl)benzamide]
IC50 [1]: 4330 nM

O=C(NCC1CCN(CCN2CCCC2=O)CC1)c1cc(F)cc(C(F)(F)F)c1 [Compound 487, 3-fluoro-N-((1-(2-(2-oxopyrrolidin-1-yl)ethyl)piperidin-4-yl)methyl)-5-(trifluoromethyl)benzamide]
IC50 [1]: > 10000 nM

O=C(NCC1CCN(C2CN(C(=O)c3cc(Cl)cc(Cl)c3)C2)CC1)c1cc(F)cc(Cl)c1 [Compound 601, 3-chloro-N-((1-(1-(3,5-dichlorobenzoyl)azetidin-3-yl)piperidin-4-yl)methyl)-5-fluoro-benzamide]
IC50 [1]: 1870 nM

CC1(C(=O)N2CC(N3CCC(CNC(=O)c4cc(F)cc(Cl)c4)CC3)C2)CC1 [Compound 608, 3-chloro-5-fluoro-N-((1-(1-(1-methylcyclopropanecarbonyl)azetidin-3-yl)piperidin-4-yl)methyl)benzamide]
IC50 [1]: > 10000 nM

O=C(CN1CCC(CNC(=O)c2cc(C(F)(F)F)cc(C(F)(F)F)c2)CC1)NC1CCCCC1 [Compound 94, N-((1-(2-(cyclohexylamino)-2-oxoethyl)piperidin-4-yl)methyl)-3,5-bis(trifluoromethyl)benzamide]
IC50 [1]: 60 nM

O=C(NCC1CCN(C2CN(C(=O)c3cc(F)cc(Cl)c3)C2)CC1)c1cc(F)cc(Cl)c1 [Compound 605, 3-chloro-N-((1-(1-(3-chloro-5-fluorobenzoyl)azetidin-3-yl)piperidin-4-yl)methyl)-5-fluorobenzamide]
IC50 [1]: 3580 nM

O=C(NCC1CCN(CCNS(=O)(=O)C2CC2)CC1)c1cc(F)cc(Cl)c1 [Compound 390, 3-chloro-N-((1-(2-(cyclopropanesulfonamido)ethyl)piperidin-4-yl)methyl)-5-fluoro-benzamide]
IC50 [2]: < 300 nM

O=C(NCC1CCN(CCNC(=O)C2CCCC2)CC1)c1cccc(OC(F)(F)F)c1 [Compound 401, N-((1-(2-(cyclopentanecarboxamido)ethyl)piperidin-4-yl)methyl)-3-(trifluoromethoxy)benzamide]
IC50 [2]: 910 nM

CC(C)(C)CC(=O)N1CCC[C@H]1CN1CCC(CNC(=O)c2cc(F)cc(C(F)(F)F)c2)CC1 [Compound 424, (S)-N-((1-((1-(3,3-dimethylbutanol)pyrrolidin-2-yl)methyl)piperidin-4-yl)methyl)-3-fluoro-5-(trifluoromethyl)benzamide]
IC50 [2]: 440 nM

N#CC1CCN(CC(=O)N2CCC(CNC(=O)c3cc(C(F)(F)F)cc(C(F)(F)F)c3)CC2)CC1 [Compound 259, N-((1-(2-(4-cyanopiperidin-1-yl)acetyl)piperidin-4-yl)methyl)-3,5-bis(trifluoromethyl)benzamide]
IC50 [2]: > 10000 nM

CC(C)(C)NC(=O)CN1CCC(CNC(=O)C2(c3ccc(Cl)cc3)CCCC2)CC1 [Compound 428, N-((1-(2-(tert-buylamino)-2-oxoethyl)piperidin-4-yl)methyl)-1-(4-chlorophenyl)cyclopentanecarboxamide]
IC50 [2]: < 300 nM

CC(C)(C)C(O)CN1CCC(CC(=O)NCc2cccc(OC(F)F)c2)CC1 (stereo not drawn) [Compound 175, N-(3-(difluoromethoxy)benzyl)-2-(1-(2-hydroxy-3,3-dimethylbutyl)piperidin-4-yl)acetamide]
IC50 [2]: > 10000 nM

CC(C)(C)OC(=O)NCCN1CCC(CNC(=O)c2ccccc2OC(F)(F)F)CC1 [Compound 55, tert-butyl 2-(4-((2-(trifluoromethoxy)benzamido)methyl)piperidin-1-yl)ethylcarbamate]
IC50 [2]: > 10000 nM

CC(C)(C)C(O)CN1CCC(CC(=O)NCCc2ccc(F)cc2)CC1 (stereo not drawn) [Compound 177, N-(4-fluorophenethyl)-2-(1-(2-hydroxy-3,3-dimethylbuyl)piperidin-4-yl)acetamide]
IC50 [2]: > 10000 nM
